Values quoted from earlier work, collected in publication PMC11369081, “Molecular mechanism of prolactin-releasing peptide recognition and signaling via its G protein-coupled receptor” (Cell Discovery, 2024).
Ends that are not written are not given here.

Tested on: PrRPR
Settings: cited from earlier work
Experimental: In both structures, the intramolecular motif of W8, Y9, and R12 within PrRP20 stabilizes its α-helical structure (Fig. 2h). […] Th ...

Substance	activity in vitro (structure-activity relationship studies, ref [21])	affinity of shortest effective analog (deletion analysis of PrRP20 N-terminal region, vs PrRP20, ref [9])
PrRP20 analog (W8–F20): PrRP20 analog (W8–F20) (WYASRGIRPVGRF; ends and bridges not checked; UniProt P81277 41-53, looked up, fragment)	did not show reduced activity in vitro	–
C-terminal heptapeptide (I14–F20): shortest effective analog is a C-terminal heptapeptide (I14–F20) (IRPVGRF; ends and bridges not checked; UniProt P81277 47-53, looked up, fragment)	–	substantially lower affinity
